Measured values taken from patent publication US20110224229A1, “Novel Crystalline Form” (AstraZeneca AB, priority 2010, published 2011).
Entries after “also recorded” stand apart in the source; their conditions may differ.

How the values were obtained:
[1] = Humidity interaction, Gravimetrical Vapour Sorption (GVS); format: physicochemical; conditions: for hygroscopicity, defined as the water uptake by a dried sample when the relative humidity is increased from 0% to 80%: 0% to 80% RH at 25° C.; for hygroscopicity (in words) / water uptake following exposure to 80% relative humidity (RH): GVS, 80% RH
Protocol: The gravimetric responses of test samples to changes in humidity were investigated using a TGA 5000 (TA Instruments) Gravimetrical Vapour Sorption (GVS). The temperature was held at 25° C. throughout the experiments. The relative humidity (RH) was raised in steps (of 5 or 10%) up to 90% RH and lowered back to 0% RH in two cycles. Each level of RH was held until the equilibrium condition (sample weight change<0.0005 wt % per 10 minutes) was reached. 5-10 mg of the test sample was placed in the cup and evaluated. The hygroscopicity was calculated as the relative change in weight of the sample between 0% RH at the start of the second cycle and 80% RH during the increase of humidity in the second cycle.
The hygroscopicity of a sample is dependent on factors in addition to the inherent properties of the pure solid form itself, for example the purity and the crystallinity of the sample will have some impact on the result.

[2] = Slurrying in water or solvents, hydrate/solvate formation; format: physicochemical
[3] = molecular target: T1, Human Neutrophil Elastase (HNE) (Homo sapiens, UniProt P08246); experiment: Human Neutrophil Elastase Quenched-FRET Assay; format: biochemical; conditions: compound dissolved in DMSO; n=7; read-out: IC50 value for inhibition of human neutrophil elastase activity
T1 construct: Human Neutrophil Elastase (HNE) purified from serum; purchased Calbiochem 324681; host or cells: natural source
T1 sequence (P08246 30-267): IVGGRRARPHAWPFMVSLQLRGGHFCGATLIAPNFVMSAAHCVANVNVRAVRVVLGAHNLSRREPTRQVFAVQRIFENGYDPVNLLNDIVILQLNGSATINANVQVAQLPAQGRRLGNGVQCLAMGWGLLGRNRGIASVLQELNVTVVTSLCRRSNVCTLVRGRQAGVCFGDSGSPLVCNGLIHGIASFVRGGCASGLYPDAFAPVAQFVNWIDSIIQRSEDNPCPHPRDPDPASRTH
Protocol: The assay uses Human Neutrophil Elastase (HNE) purified from serum (Calbiochem art. 324681; Ref. Baugh, R. J. et al., 1976, Biochemistry. 15, 836-841). HNE was stored in 50 mM sodium acetate (NaOAc), 500 mM sodium chloride (NaCl), pH 5.5 with added 50% glycerol at −20° C. The protease substrate used was Elastase Substrate V Fluorogenic, MeOSuc-AAPV-AMC (Calbiochem art. 324740; Ref. Castillo, M. J. et al., 1979, Anal. Biochem. 99, 53-64). The substrate was stored in dimethyl sulfoxide (DMSO) at −20° C. The assay additions were as follows: Test compounds and controls were added to black 96-well flat-bottom plates (Greiner 655076), 1.0 μL in 100% DMSO, followed by 30 μL HNE in assay buffer with 0.01% Triton (trade mark) X-100 detergent. The assay buffer constitution was: 100 mM Tris(hydroxymethyl)aminomethane (TRIS) (pH 7.5) and 500 mM NaCl. The enzyme and the compounds were incubated at room temperature for 15 minutes. Then 30 μl substrate in assay buffer was added. The assay was incubated for 90 minutes at room temperature. The concentrations of HNE enzyme and substrate during the incubation were 0.17 nM and 100 μM, respectively. […] Fluorescence was measured on a Wallac EnVision instrument at settings: Excitation 380 nm, Emission 460 nm. IC50 values were determined using Xlfit curve fitting using model 203.

Row | hygroscopicity, defined as the water uptake by a dried sample when the relative humidity is increased from 0% to 80% [1] | water uptake following exposure to 80% relative humidity (RH) [1] | hydrate formation when slurried in water ([2]; slurried in water for 4 weeks) | IC50 [3] [nM] | Compound | hygroscopicity (in words) [1] | solvate/hydrate formation when slurried in water, ethanol or acetonitrile ([2]; slurried in water, ethanol or acetonitrile, XRPD)
1 | 0.08 % (w/w) | about 0.08 % by weight | did not form hydrates | – | CCNC(=O)c1nc(-c2ccnn2-c2ccc(C#N)cc2)c(C)n(-c2cccc(C(F)(F)F)c2)c1=O [Compound (I) Form B, 6-[2-(4-Cyano-phenyl)-2H-pyrazol-3-yl]-5-methyl-3-oxo-4-(3-trifluoromethyl-phenyl)-3,4-dihydro-pyrazine-2-carboxylic acid ethylamide Form B] | substantially non-hygroscopic | –
2 | – | – | – | 0.27 | CCNC(=O)c1nc(-c2ccnn2-c2ccc(C#N)cc2)c(C)n(-c2cccc(C(F)(F)F)c2)c1=O [Compound (I), 6-[2-(4-Cyano-phenyl)-2H-pyrazol-3-yl]-5-methyl-3-oxo-4-(3-trifluoromethyl-phenyl)-3,4-dihydro-pyrazine-2-carboxylic acid ethylamide] | – | –
3 | 1.6 % (w/w) | about 1.6 % by weight | – | – | CCNC(=O)c1nc(-c2ccnn2-c2ccc(C#N)cc2)c(C)n(-c2cccc(C(F)(F)F)c2)c1=O [Compound (I) Form A, 6-[2-(4-Cyano-phenyl)-2H-pyrazol-3-yl]-5-methyl-3-oxo-4-(3-trifluoromethyl-phenyl)-3,4-dihydro-pyrazine-2-carboxylic acid ethylamide Form A] | slightly hygroscopic; also recorded: non-hygroscopic | forms variable, non-stoichiometric solvates with acetonitrile or ethanol and hydrates with water
